The results in this text go back to patent US20100330098A1, “METHODS TO REGULATE GLUCOSE METABOLISM” (priority 2009, published 2010).

Entries after “also recorded” stand apart in the source; their conditions may differ.

Format in all cases: in vivo, mouse
The subject of experiment [1] is db/db mice. Description: Plasma insulin levels by ELISA in db/db mice. The settings on record: VEGF Trap vs hFc, ELISA (FIG. 31). As to the method: FIG. 31 is a graph showing plasma insulin levels as determined by ELISA. * P=0.003 between VEGF Trap- and hFc-treated db/db mice. The hyperinsulinemia of db/db mice is corrected by VEGF Trap treatment.
FIGS. 28-29 illustrate that the chronic administration of VEGF Trap protein improves hepatic glucose tolerance in db/db mice. 10 week-old female db/db and db/+ mice (n=5) were treated with twice-weekly subcutaneous injections of 25 mg/kg VEGF Trap or control hFc.
(In an ELISA, binding on a coated surface is turned into a signal by an enzyme label.)

A further experiment relates to IRS-2. Description: Western blot of liver extracts: hepatic IRS-2 protein. The following applies: livers from VEGF Trap-treated mice (FIG. 8). From the text:
(§1) FIG. 4 is a Western blot indicating increased hepatic insulin signaling following single intravenous injections of 5×10^8 pfu Ad Flt1 (VEGF inhibition) or Ad Fc (negative control) into adult C57Bl/6 mice. […] IR-β: b-subunit of the IR. * P≦0.05; n=5 animals each.
(§2) FIG. 8 is a digital image of a Western blot analysis.
In general terms: In western blotting, separated proteins are transferred to a membrane and probed.

Experiment [2] deals with db/db mice. The experiment is described as follows: Ad libidum (fed) and fasting blood glucose levels in db/db mice. The settings on record: long-term twice-weekly s.c. 25 mg/kg VEGF Trap vs hFc (FIG. 28). From the text:
FIG. 25 is a graph showing ad libidum and fasting blood glucose levels in mice. * P≦0.05 in the indicated treatment groups compared to control.
FIG. 28 is a graph showing ad libidum blood glucose levels. * P<0.04 between VEGF Trap- and hFc-treated db/db mice at the indicated time points.
FIG. 33 is a graph showing the fed and fasting blood glucose levels in db/db mice.
Db/db model. Db/db or wild-type mice received single intravenous injection of adenoviruses encoding Ad Flt (soluble VEGF receptor), Ad Fc (control antibody Fc fragment), VEGF Trap or control human Fc fragment, with or without adenovirus encoding shRNA against HIF-2α, or scrambled control shRNA. Adenovirus gives preferential and quantitative hepatocyte infection, a robust maneuver for achieving hepatic gene knockdown (Canettieri et al., (2005) Cell Metab. 2: 331; Taniguchi et al., (2005) J. Clin. Invest. 115: 718).
(§3) FIGS. 25-27 illustrate that VEGF inhibition and HIF-2α activation reverse the diabetic phenotype of db/db mice. The data of […] are from 10 week-old female db/db mice injected with 5×10^8 pfu of the indicated viruses.
FIGS. 28-29 illustrate that the chronic administration of VEGF Trap protein improves hepatic glucose tolerance in db/db mice. 10 week-old female db/db and db/+ mice (n=5) were treated with twice-weekly subcutaneous injections of 25 mg/kg VEGF Trap or control hFc. […]

The subject of another experiment is G6PC and PEPCK. The experiment is described as follows: Quantitative PCR of hepatic gluconeogenic gene expression. The following applies: SCID mice, six weeks twice-weekly s.c. 25 mg/kg VEGF Trap vs human Fc (FIG. 9).
Experiment [3] concerns db/db mice. Description: Glucose tolerance test in db/db mice. The following applies: twice-weekly s.c. 25 mg/kg VEGF Trap vs hFc, 0.5 g/kg glucose i.p. (FIGS. 29-30). Here is the method:
FIG. 26 is a graph showing the results of glucose tolerance tests. 7 d after adenoviral infection, mice were given 0.5 g/kg glucose intraperitoneally and blood glucose levels were measured.
FIG. 29 is a graph showing the results of a glucose tolerance test in db/db mice. Mice were given 0.5 g/kg glucose intraperitoneally and blood glucose levels were measured. * P<0.03 between treatment groups at the indicated time points. Values are mean±s.e.m.
FIG. 30 is a graph showing the results of a glucose tolerance test in db/db mice. Mice were given 0.5 g/kg glucose intraperitoneally and blood glucose levels were measured. * P<0.03 between treatment groups at the indicated time points. Values are mean±s.e.m.
FIG. 32 is a graph showing the results of a glucose tolerance test in db/db mice. Mice were given 0.5 g/kg glucose intraperitoneally and blood glucose levels were measured. * P<0.02 between treatment groups at the indicated time points. Values are mean±s.e.m.
as §3
FIGS. 28-29 illustrate that the chronic administration of VEGF Trap protein improves hepatic glucose tolerance in db/db mice. […]

For the next experiment, the system named is HIF-2α. Description: Immunoblots of hepatic HIF-2α. The settings on record: C57Bl/6 mice, 14 days after single injection of 5×10^8 pfu Ad Flt1 vs Ad Fc (FIG. 11).
A further experiment relates to C57Bl/6 and SCID mice. The experiment is described as follows: Ad libidum and fasting blood glucose levels in wild-type mice. The settings on record: 6 weeks of twice-weekly s.c. VEGF Trap vs human Fc (FIG. 6).
The next experiment concerns C57Bl/6 mice. Description: Euglycemic, hyperinsulinemic clamp analyses. The settings on record: adult male C57Bl/6 mice. From the text:
Adult male C57Bl/6 mice (n=8 or 9) were used. * P=0.01 ** P=0.0001 for control vs. treatment.

Experiment [4] relates to insulin receptor (IR) signaling intermediates Akt, GSK-3β, FOXO1. Description: Western blot of liver extracts: phosphorylation of insulin receptor signaling intermediates. The settings on record: livers from VEGF Trap-treated mice (FIG. 8).
Description: as §1, §2

With “VEGF Trap: Ig domain 2 from VEGFR1 fused to Ig domain 3 from VEGFR2, fused to the Fc domain of IgG1 (Regeneron)”, the “plasma insulin levels (hyperinsulinemia)” value in the experiment with db/db mice [1] is “sustained correction; also recorded: corrected”. For the same substance, the “liver IRS-2 levels” value in the experiment on IRS-2 is listed as “higher levels”. Further, the “ad libidum blood glucose levels (hyperglycemia)” value in the experiment on db/db mice [2] is “sustained correction”. In the experiment with G6PC and PEPCK, the “hepatic expression of G6PC and PEPCK” value is “significantly reduced”. The “glucose tolerance (GTT)” value in the experiment with db/db mice [3] is listed as “improved glucose tolerance; also recorded: improves”. Also, the “hepatic HIF-2α stabilization” value in the experiment with HIF-2α is “increased stabilization”. The blood glucose levels result with C57Bl/6 and SCID mice is “lowered”. Also, in the experiment on C57Bl/6 mice (hyperinsulinemic euglycemic clamp (FIG. 7A)), the “glucose infusion rate to maintain euglycemia” value is “higher glucose infusion rate”. The “insulin suppression of hepatic glucose production (insulin action in the liver)” value with C57Bl/6 mice (hyperinsulinemic euglycemic clamp (FIG. 7B)) was “increased insulin action in the liver”. Further, the “liver phospho-AKT levels” value in [4] is recorded as “higher levels”.
